Measurements reported in patent publication US11319348B2, “Synthetic beta-amyloid peptides capable of forming stable antigenic oligomers” (The Regents of the University of California, priority 2016, dated 2022).
“Also recorded” adds a separate entry of the source.

Legend:
[1] = system: SH-SY5Y cells; test: LDH release assay; type: cell-based, human
Description: Aβ is known to be toxic toward neurons and neuronally derived cells (I. Benilova, et al., 2012, cited supra). To corroborate the toxicity of Aβ, we prepared oligomers of Aβ42 and studied their toxicity toward a human neuroblastoma cell line, SH-SY5Y. Aβ oligomers were prepared according to the procedure developed by Teplow and coworkers using recombinantly expressed Aβ42 pretreated with NH4OH (purchased from rPeptide) (D. B. Teplow, Methods Enzymol. 2006 413, 20-33; and Y. Fezoui, et al., Amyloid. 2000 7, 166-178; the disclosures of which are incorporated herein by reference). Under the conditions of the oligomer preparation, Aβ42 forms predominantly monomer, trimer, and tetramer as assessed by SDS-PAGE (FIG. 28A). It was also observed that bands migrated with molecular weights consistent with a pentamer and hexamer. SH-SY5Y cells were treated with varying concentrations of Aβ42, and toxicity was evaluated using a lactate dehydrogenase (LDH) release assay. Aβ42 increased LDH release in a dose-dependent manner at concentrations as low as 2.5 μM, corroborating the toxicity of Aβ42 (FIG. 28B).
It was hypothesized that trimers 3 and 4 may elicit toxicity similarly to Aβ42. The toxicities of trimers 3 and 4 towards SH-SY5Y cells were evaluated using an LDH assay, using deionized water (vehicle) and peptides 1 and 2 as controls. Trimer 4 increased LDH release in a dose-dependent manner at concentrations as low as 1.5 μM, indicating toxicity toward SH-SY5Y cells (FIG. 29A). LDH release was observed as early as 48 h after addition to the cells and reached a maximum after 72 h.
Many oligomers formed by full-length Aβ are toxic toward cells (I. Benilove, E. Karan, and B. De Strooper, Nat. Neurosci. 2012 15, 349-357; and M. E. Larson and S. E. Lesne J. Neurochem. 2012 120, 125-139; the disclosures of which are incorporated herein by reference). To test whether the oligomers formed by peptide 8 are also toxic, the toxicity of peptide 8 toward neuronally derived SH-SY5Y cells were evaluated using a lactate dehydrogenase (LDH) release assay. Peptide 8 and 10 were compared to investigate how the hexamer-forming Aβ16-36-derived peptide compares to a non-oligomerizing homologue. The toxicity of peptides 2 and 11 were also evaluated to better understand the relationship between oligomerization and toxicity.
The toxicities of peptides 1 and […], and trimers 3 and 4 toward SH-SY5Y cells were assessed by LDH release and caspase-3 activation assays. Cells were incubated in the presence or absence of equivalent concentrations of peptides 1 or 3, or trimers 3 and 4 for 72 h in 96-well plates. The LDH release assay was performed using the Pierce LDH Cytotoxicity Assay Kit from Thermo Scientific. The caspase-3 assay was performed using the Roche APO-One Homogeneous Caspase-3/7 Assay. Experiments were performed in replicates of five and an additional 10 wells were used for controls. Cells were cultured in the inner 60 wells (rows B-G, columns 2-11) of the 96-well plate. DMEM:F12 media (100 μL) was added to the outer wells (rows A and H, columns 1 and 12), in order to ensure the greatest reproducibility of data generated in the inner wells.
A 10 mg/mL stock solution of peptides 1 or […], or trimers 3 and 4 was prepared gravimetrically by dissolving 1 mg of each compound in 100 μL of deionized water that was either filtered through a 0.2 μm syringe filter or autoclaved. The stock solution was used to create 180 μM working solutions of peptides 1 or 3, or 60 μM working solutions of trimers 3 and 4 (these solutions contain equivalent concentrations of peptide). The 180 μM working solutions of peptides 1 and 2 were serially diluted with deionized water to create 90 μM working solutions of peptides 1 and 2. The 60 μM working solutions of trimers 3 and 4 were serially diluted with deionized water to create 30 μM, 15 μM, and 7.5 μM working solutions of trimers 3 and 4.
SH-SY5Y cells were plated in a 96-well plate at 30,000 cells per well. […]

[2] = Tricine SDS-PAGE with silver staining; type: physicochemical
Excerpt: Trimer 3 migrates as a single band at a molecular weight consistent with a hexamer. Trimer 4, in contrast, migrates as two distinct bands: a band consistent with the molecular weight of a dodecamer, and a band consistent with the molecular weight of a trimer.
Peptide 8 assembles to form a hexamer in SDS-PAGE. […] To further confirm the oligomerization state of […], it was compared to covalent trimers 3 and 4 (FIGS. 19A and 19B), which was previously determined to migrate respectively as 10.6 kDa hexamers and 21.2 kDa dodecamers in equilibrium with the 5.3 kDa trimers. Peptide 8 migrates at the same molecular weight as the hexamer band of trimer 3, providing further evidence that peptide 8 assembles to form a hexamer in SDS-PAGE.
The oligomerization of peptides 1 and 2 and trimers 3 and 4 was studied by Tricine SDS-PAGE.
Each peptide or trimer was dissolved in deionized water to a concentration of 10 mg/mL. An aliquot of the 10 mg/mL solutions was diluted with deionized water to create 2 mg/mL solutions of peptides 1 and 2, or 0.12 mg/mL solutions of trimers 3 and 4. The […] of peptides 1 and 2, as well as the 0.12 mg/mL solutions of trimers 3 and 4 were further diluted with 2×SDS-PAGE loading buffer (100 mM Tris buffer at pH 6.8, 20% (v/v) glycerol, and 4% SDS) to create 1 mg/mL working solutions of peptides 1 and 2, and 0.06 mg/mL working solutions of trimers 3 and 4. A 5 μL aliquot of each working solution was run on a 16% polyacrylamide gel with a 4% stacking polyacrylamide gel. The gels were run at a constant 60 volts at 4° C.
Staining with silver nitrate was used to visualize peptides 1 and 2 and trimers 3 and 4 in the SDS-PAGE gel. Briefly, the gel was removed from the casting glass and rocked in fixing solution (50% (v/v) methanol and 5% (v/v) acetic acid in deionized water) for 20 min. Next, the fixing solution was discarded and the gel was rocked in 50% (v/v) methanol for 10 min. Next, the 50% methanol was discarded and the gel was rocked in deionized water for 10 min. Next, the water was discarded and the gel was rocked in 0.02% (w/v) sodium thiosulfate in deionized water for 1 min. The sodium thiosulfate was discarded and the gel was rinsed with deionized water (2×). After the last rinse, the gel was submerged in chilled 0.1% (w/v) silver nitrate in deionized water and rocked at 4° C. for 20 min. Next, the silver nitrate solution was discarded and the gel was rinsed with deionized water (2×). To develop the gel, the gel was incubated in developing solution (2% w/v sodium carbonate, 0.04% formaldehyde until the desired intensity of staining was reached (˜1-3 min). When the desired intensity of staining was reached, the development was topped by discarding the developing solution and submerging the gel in 5% acetic acid.

[3] = size exclusion chromatography in Tris buffer; type: physicochemical
Excerpt: The elution profile of peptide 8 was compared to the size standards vitamin B12, aprotinin, and cytochrome c, as well as peptide 2. Peptide 8 elutes as a broad peak with three distinct humps (FIG. 41B). […] Peptide 2 elutes as two distinct peaks: a larger peak with an elution volume consistent with the molecular weight of a dimer, and a smaller peak with an elution volume consistent with the molecular weight of a trimer (FIG. 41B). […]

| Substance | lowest concentration with increased LDH release / toxicity (concentrations as low as) ([1]; SH-SY5Y cells) [µM] | dose dependence of LDH release ([1]; 50, 100 and 200 μM) | LDH release / toxicity toward SH-SY5Y cells, in words ([1]; SH-SY5Y cells) | oligomer state by migration in SDS-PAGE [2] | oligomer size ([3]; SEC) | oligomer state consistent with SEC elution volume ([3]; absence of SDS) |
| --- | --- | --- | --- | --- | --- | --- |
| Aβ42: oligomers prepared from recombinantly expressed Aβ42 pretreated with NH4OH (purchased from rPeptide) [reference compound] | 2.5 | – | – | – | – | – |
| peptide 8: Aβ16-22 and Aβ30-36 β-strands linked by two δOrn turn units, N-methyl on Phe19, native Met35 (Seq. ID 33-34) | 50 | No dose dependence | toxic | hexamer | monomer, dimer,; also recorded: trimer | dimers and trimers; also recorded: monomer, dimer, and trimer |
